From PubChem BioAssay (NCI)
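Briefly, cells in 96-well plates were exposed to five compound concentrations for 48 h, and endpoints were estimated by linear interpolation. GI50: concentration for 50% inhibition of growth. TGI: total growth inhibition.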

Columns and labels:
Assay in all cases: NCI tumour cell line growth inhibition, 48 h
KM12 colon = system: KM12 colon
SNB-75 CNS = system: SNB-75 CNS
HL-60(TB) leukemia = system: HL-60(TB) leukemia
A549 NSCLC = system: A549 NSCLC
NCI-H522 lung = system: NCI-H522 lung
IGROV1 ovarian = system: IGROV1 ovarian
RXF 393 renal = system: RXF 393 renal
MDA-MB-435 = system: MDA-MB-435
ACHN renal = system: ACHN renal
RPMI-8226 leukemia = system: RPMI-8226 leukemia
SK-MEL-2 melanoma = system: SK-MEL-2 melanoma
SN12C renal = system: SN12C renal
UACC-62 melanoma = system: UACC-62 melanoma
U251 CNS = system: U251 CNS
MCF7 breast = system: MCF7 breast
SW-620 colon = system: SW-620 colon
MALME-3M melanoma = system: MALME-3M melanoma
NCI-H226 lung = system: NCI-H226 lung
CCRF-CEM leukemia = system: CCRF-CEM leukemia
HCT-15 colon = system: HCT-15 colon
DU-145 prostate = system: DU-145 prostate
HOP-62 NSCLC = system: HOP-62 NSCLC
786-0 renal = system: 786-0 renal
COLO 205 colon = system: COLO 205 colon
SK-MEL-5 melanoma = system: SK-MEL-5 melanoma
MDA-MB-231 breast = system: MDA-MB-231 breast
EKVX NSCLC = system: EKVX NSCLC
HT29 colon = system: HT29 colon
M14 melanoma = system: M14 melanoma

## O=C1c2cc(Cl)ccc2-c2c1c1ccc([N+](=O)[O-])cc1c(=O)n2CCCBr
KM12 colon
  GI50: 20.8 µM
  TGI: > 100 µM
SNB-75 CNS
  GI50: 5.96 µM
  TGI: 64.2 µM
HL-60(TB) leukemia
  GI50: 1.26 µM
  TGI: 5.71 µM
A549 NSCLC
  GI50: 5.85 µM
  TGI: > 100 µM
NCI-H522 lung
  GI50: 5.02 µM
  TGI: 43.4 µM
IGROV1 ovarian
  GI50: 5.77 µM
  TGI: 90.8 µM
RXF 393 renal
  GI50: 17.6 µM
  TGI: > 100 µM
MDA-MB-435
  GI50: 14.9 µM
  TGI: > 100 µM
ACHN renal
  GI50: 2.42 µM
  TGI: 7.25 µM
RPMI-8226 leukemia
  GI50: 3.66 µM
  TGI: 96 µM
SK-MEL-2 melanoma
  GI50: 82.6 µM
  TGI: > 100 µM
SN12C renal
  GI50: 2.5 µM
  TGI: 8.89 µM
UACC-62 melanoma
  GI50: 3.45 µM
  TGI: 39.8 µM
U251 CNS
  GI50: 3.07 µM
  TGI: > 100 µM
MCF7 breast
  GI50: 4.61 µM
  TGI: > 100 µM
SW-620 colon
  GI50: 3.78 µM
  TGI: > 100 µM
MALME-3M melanoma
  GI50: 9.32 µM
  TGI: 82 µM
NCI-H226 lung
  GI50: 11.5 µM
  TGI: > 100 µM
CCRF-CEM leukemia
  GI50: 0.625 µM
  TGI: > 100 µM
HCT-15 colon
  GI50: 31.2 µM
  TGI: > 100 µM
DU-145 prostate
  GI50: 4 µM
  TGI: > 100 µM
HOP-62 NSCLC
  GI50: 2.46 µM
  TGI: 23 µM
786-0 renal
  GI50: 2.62 µM
  TGI: 9.31 µM
COLO 205 colon
  GI50: 3.37 µM
  TGI: > 100 µM
SK-MEL-5 melanoma
  GI50: 3.21 µM
  TGI: 24.3 µM
MDA-MB-231 breast
  GI50: > 100 µM
  TGI: > 100 µM
EKVX NSCLC
  GI50: > 100 µM
  TGI: > 100 µM
HT29 colon
  GI50: 12.5 µM
  TGI: > 100 µM
M14 melanoma
  GI50: 3.91 µM
